# Laboratory results as given in patent US20070116820A1, “EDIBLE GEL COMPOSITIONS COMPRISING HIGH-POTENCY SWEETENERS” (THE COCA-COLA COMPANY, priority 2005, published 2007).
# How the values were obtained:
# [1] = Rate of dissolution of rebaudioside A polymorph and amorphous forms in H2O at 25° C.; type: physicochemical
# [2] = type: physicochemical
# Procedure: A solution of rebaudioside A (>97% pure by HPLC ) was prepared in double distilled water (12.5 gm in 50 mL, 25% concentration) by stirring the mixture at 40° C. for 5 minutes. An amorphous form of rebaudioside A was formed by immediately using the clear solution for spray drying with the Lab-Plant spray drier SD-04 instrument (Lab-Plant Ltd., West Yorkshire, U.K.). The solution was fed through the feed pump into the nozzle atomizer which atomized it into a spray of droplets with the help of a constant flow of nitrogen/air. […] This dry powder (11-12 g, H2O 6.74%) was discharged continuously from the drying chamber and was collected in a bottle.
Rate of dissolution in H2O at 25° C. ([1]; per 60 minutes),solubility in water at room temperature [2] [%],Rate of dissolution in H2O at 25° C. ([1]; per 5 minutes),Substance
(<0.2%/ %/60 minutes,–,–,rebaudioside A [Form 1]
–,> 35.0,High (>35.0%/ %/5 minutes,rebaudioside A [Form 4]
–,–,(<30%/ %/5 minutes,rebaudioside A [Form 2]
–,–,High (>30%/ %/5 minutes,rebaudioside A [Form 3]
